Marks after values point to notes of the source that are not given here.
Key:
[1] = rabbit, in vivo
[2] = rabbit, in vivo; remark: listed apart in the source

Monosulphate Heptadodecyl Sucrose [S12, reference compound]
Number of animals demonstrating a detectable adverse local reaction four weeks after the first immunization [1]: 1/6 (redness)
Number of animals demonstrating a detectable adverse local reaction one week after the second immunization [1]: 2/6 (redness/swelling)
Body temperature one day after the first immunization, Mean [2]: 39.4^a ° C.
Body temperature one day after the second immunization, Mean [2]: 39.7^a ° C.
rise in body temperature one day after the first and second immunization [2]: about 0.5 °C

Source: patent publication US10342867B2 (priority 2014, dated 2019)
